In PubChem BioAssay AID2060497 (Molecular Pharmacology Branch, DTP, NCI, 2025):

Test system: 317291-083-R-J1-PDC complex spheroids, viability
Assay: Anticancer human tumor 317291-083-R-J1-PDC patient-derived soft tissue sarcoma cell line growth inhibition [GQUAD]
Details: for IC50: curve of first compound; for viability, T/C: stronger effect = lower value
Outline: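 Tumor cells were grown as complex spheroids with HUVEC endothelial cells and mesenchymal stem cells as stroma. G-quadruplex stabilizers were combined with targeted agents over half-log dilutions from near the clinical Cmax, or from 10 microM.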

[1] = second compound 0.0316 µM, first compound 0.0316 µM
[2] = second compound 0.0316 µM, first compound 0.1 µM
[3] = second compound 0.0316 µM, first compound 0.316 µM
[4] = second compound 0.0316 µM, first compound 1 µM
[5] = second compound 0.0316 µM, first compound 3.16 µM
[6] = second compound 0.0316 µM, first compound 10 µM
[7] = second compound 0.1 µM, first compound 0.0316 µM
[8] = second compound 0.1 µM, first compound 0.1 µM
[9] = second compound 0.1 µM, first compound 0.316 µM
[10] = second compound 0.1 µM, first compound 1 µM
[11] = second compound 0.1 µM, first compound 3.16 µM
[12] = second compound 0.1 µM, first compound 10 µM
[13] = second compound 0.316 µM, first compound 0.0316 µM
[14] = second compound 0.316 µM, first compound 0.1 µM
[15] = second compound 0.316 µM, first compound 0.316 µM
[16] = second compound 0.316 µM, first compound 1 µM
[17] = second compound 0.316 µM, first compound 3.16 µM
[18] = second compound 0.316 µM, first compound 10 µM
[19] = second compound 1 µM, first compound 0.0316 µM
[20] = second compound 1 µM, first compound 0.1 µM
[21] = second compound 1 µM, first compound 0.316 µM
[22] = second compound 1 µM, first compound 1 µM
[23] = second compound 1 µM, first compound 3.16 µM
[24] = second compound 1 µM, first compound 10 µM
[25] = second compound 3.16 µM, first compound 0.0316 µM
[26] = second compound 3.16 µM, first compound 0.1 µM
[27] = second compound 3.16 µM, first compound 0.316 µM
[28] = second compound 3.16 µM, first compound 1 µM
[29] = second compound 3.16 µM, first compound 3.16 µM
[30] = second compound 3.16 µM, first compound 10 µM
[31] = second compound 10 µM, first compound 0.0316 µM
[32] = second compound 10 µM, first compound 0.1 µM
[33] = second compound 10 µM, first compound 0.316 µM
[34] = second compound 10 µM, first compound 1 µM
[35] = second compound 10 µM, first compound 3.16 µM
[36] = second compound 10 µM, first compound 10 µM
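Also: spheroids exposed to compounds for one week before readout.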
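For viability, T/C in this document: percent viability relative to DMSO vehicle wells taken as 100%.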

CC1COCCN1c1cc(C2(S(C)(=N)=O)CC2)nc(-c2ccnc3[nH]ccc23)n1 (stereo not drawn) + Cc1cnc(CNC(=O)c2c(=O)c3ccc(N4CCCN(C)CC4)nc3n3c2sc2ccccc23)cn1
IC50 (second compound 0.0316 µM): 1.28 µM
IC50 (second compound 0.1 µM): 0.493 µM
IC50 (second compound 0.316 µM): < 0.0316 µM
IC50 (second compound 1 µM): < 0.0316 µM
IC50 (second compound 3.16 µM): < 0.0316 µM
IC50 (second compound 10 µM): < 0.0316 µM
viability, T/C [1]: 97.2%
viability, T/C [2]: 99.6%
viability, T/C [3]: 69.2%
viability, T/C [4]: 67.6%
viability, T/C [5]: 19%
viability, T/C [6]: 10.4%
viability, T/C [7]: 66.2%
viability, T/C [8]: 111%
viability, T/C [9]: 64.6%
viability, T/C [10]: 34.4%
viability, T/C [11]: 22.5%
viability, T/C [12]: 23.2%
viability, T/C [13]: 44%
viability, T/C [14]: 42.2%
viability, T/C [15]: 42.8%
viability, T/C [16]: 35%
viability, T/C [17]: 12.2%
viability, T/C [18]: 18.2%
viability, T/C [19]: 34.8%
viability, T/C [20]: 60.1%
viability, T/C [21]: 32.2%
viability, T/C [22]: 20.8%
viability, T/C [23]: 25.3%
viability, T/C [24]: 14.8%
viability, T/C [25]: 16.2%
viability, T/C [26]: 22.4%
viability, T/C [27]: 18%
viability, T/C [28]: 26.7%
viability, T/C [29]: 15.4%
viability, T/C [30]: 14.6%
viability, T/C [31]: 39.2%
viability, T/C [32]: 19.8%
viability, T/C [33]: 46.7%
viability, T/C [34]: 9.84%
viability, T/C [35]: 20.8%
viability, T/C [36]: 9.87%

CC1COCCN1c1cc(-c2ccnn2C)c2ccnc(-c3ccn[nH]3)c2n1 (stereo not drawn) + Cc1[nH]c2ccc(F)cc2c1-c1nc2c3cccnc3c3ncccc3c2[nH]1
IC50 (second compound 0.0316 µM): 0.0888 µM
IC50 (second compound 0.1 µM): 0.0751 µM
IC50 (second compound 0.316 µM): 0.0644 µM
IC50 (second compound 1 µM): 0.0625 µM
IC50 (second compound 3.16 µM): 0.0654 µM
IC50 (second compound 10 µM): 0.0709 µM
viability, T/C [1]: 87.9%
viability, T/C [2]: 45.6%
viability, T/C [3]: 16.4%
viability, T/C [4]: 11.7%
viability, T/C [5]: 13%
viability, T/C [6]: 15.1%
viability, T/C [7]: 89.4%
viability, T/C [8]: 36.9%
viability, T/C [9]: 14.7%
viability, T/C [10]: 13.8%
viability, T/C [11]: 13.6%
viability, T/C [12]: 11.5%
viability, T/C [13]: 77.7%
viability, T/C [14]: 33%
viability, T/C [15]: 13.8%
viability, T/C [16]: 14.1%
viability, T/C [17]: 11.5%
viability, T/C [18]: 14.4%
viability, T/C [19]: 76.1%
viability, T/C [20]: 31.9%
viability, T/C [21]: 18%
viability, T/C [22]: 14.8%
viability, T/C [23]: 15.3%
viability, T/C [24]: 10.1%
viability, T/C [25]: 60.7%
viability, T/C [26]: 43.7%
viability, T/C [27]: 13.3%
viability, T/C [28]: 9.76%
viability, T/C [29]: 9.63%
viability, T/C [30]: 14.1%
viability, T/C [31]: 89%
viability, T/C [32]: 33.4%
viability, T/C [33]: 13.8%
viability, T/C [34]: 8.91%
viability, T/C [35]: 10%
viability, T/C [36]: 12.1%

Nc1ccn(C2OC(CO)C(O)C2(F)F)c(=O)n1 (stereo not drawn) + Cc1cnc(CNC(=O)c2c(=O)c3ccc(N4CCCN(C)CC4)nc3n3c2sc2ccccc23)cn1
IC50 (second compound 0.0316 µM): 0.0347 µM
IC50 (second compound 0.1 µM): < 0.0316 µM
IC50 (second compound 0.316 µM): < 0.0316 µM
IC50 (second compound 1 µM): < 0.0316 µM
IC50 (second compound 3.16 µM): < 0.0316 µM
IC50 (second compound 10 µM): < 0.0316 µM
viability, T/C [1]: 53.1%
viability, T/C [2]: 20.4%
viability, T/C [3]: 17.6%
viability, T/C [4]: 11.2%
viability, T/C [5]: 8.79%
viability, T/C [6]: 6.85%
viability, T/C [7]: 43.9%
viability, T/C [8]: 39.9%
viability, T/C [9]: 11.6%
viability, T/C [10]: 15.9%
viability, T/C [11]: 8.93%
viability, T/C [12]: 7.45%
viability, T/C [13]: 43.4%
viability, T/C [14]: 19.6%
viability, T/C [15]: 11.2%
viability, T/C [16]: 8.54%
viability, T/C [17]: 14.6%
viability, T/C [18]: 8.2%
viability, T/C [19]: 31.5%
viability, T/C [20]: 21.2%
viability, T/C [21]: 26.3%
viability, T/C [22]: 6.79%
viability, T/C [23]: 8.1%
viability, T/C [24]: 7.55%
viability, T/C [25]: 19%
viability, T/C [26]: 17.5%
viability, T/C [27]: 9.09%
viability, T/C [28]: 7.43%
viability, T/C [29]: 5.04%
viability, T/C [30]: 5.88%
viability, T/C [31]: 16.9%
viability, T/C [32]: 24.9%
viability, T/C [33]: 7%
viability, T/C [34]: 8.35%
viability, T/C [35]: 5.09%
viability, T/C [36]: 8.27%

CC[C@@]1(O)C(=O)OCc2c1cc1n(c2=O)Cc2cc3c(CN(C)C)c(O)ccc3nc2-1 + CN(C)c1ccc(Nc2c3ccc(NC(=O)CCN4CCCC4)cc3nc3cc(NC(=O)CCN4CCCC4)ccc23)cc1
IC50 (second compound 0.0316 µM): 0.0549 µM
IC50 (second compound 0.1 µM): 0.0505 µM
IC50 (second compound 0.316 µM): 0.0259 µM
IC50 (second compound 1 µM): < 0.000999 µM
IC50 (second compound 3.16 µM): < 0.000999 µM
IC50 (second compound 10 µM): < 0.000999 µM
viability, T/C (second compound 0.0316 µM, first compound 0.000999 µM): 99.5%
viability, T/C (second compound 0.0316 µM, first compound 0.00316 µM): 98.3%
viability, T/C (second compound 0.0316 µM, first compound 0.00999 µM): 109%
viability, T/C [1]: 70.3%
viability, T/C (second compound 0.0316 µM, first compound 0.0999 µM): 29%
viability, T/C [3]: 16.7%
viability, T/C (second compound 0.1 µM, first compound 0.000999 µM): 95%
viability, T/C (second compound 0.1 µM, first compound 0.00316 µM): 85.4%
viability, T/C (second compound 0.1 µM, first compound 0.00999 µM): 94%
viability, T/C [7]: 65.5%
viability, T/C (second compound 0.1 µM, first compound 0.0999 µM): 26.9%
viability, T/C [9]: 15.9%
viability, T/C (second compound 0.316 µM, first compound 0.000999 µM): 79.8%
viability, T/C (second compound 0.316 µM, first compound 0.00316 µM): 90.8%
viability, T/C (second compound 0.316 µM, first compound 0.00999 µM): 74.7%
viability, T/C [13]: 42.6%
viability, T/C (second compound 0.316 µM, first compound 0.0999 µM): 28.9%
viability, T/C [15]: 14.9%
viability, T/C (second compound 1 µM, first compound 0.000999 µM): 49%
viability, T/C (second compound 1 µM, first compound 0.00316 µM): 42.6%
viability, T/C (second compound 1 µM, first compound 0.00999 µM): 48.5%
viability, T/C [19]: 36.7%
viability, T/C (second compound 1 µM, first compound 0.0999 µM): 18.1%
viability, T/C [21]: 9.13%
viability, T/C (second compound 3.16 µM, first compound 0.000999 µM): 28.4%
viability, T/C (second compound 3.16 µM, first compound 0.00316 µM): 24.1%
viability, T/C (second compound 3.16 µM, first compound 0.00999 µM): 22.8%
viability, T/C [25]: 15.4%
viability, T/C (second compound 3.16 µM, first compound 0.0999 µM): 11.5%
viability, T/C [27]: 9.22%
viability, T/C (second compound 10 µM, first compound 0.000999 µM): 9.99%
viability, T/C (second compound 10 µM, first compound 0.00316 µM): 16.1%
viability, T/C (second compound 10 µM, first compound 0.00999 µM): 5.13%
viability, T/C [31]: 5.79%
viability, T/C (second compound 10 µM, first compound 0.0999 µM): 8.35%
viability, T/C [33]: 4.27%
